Tests used:
Assay in all cases: Post-emergence test, weed control effect
Type in all cases: in vivo
Details in all cases: after 3 weeks
[1] = system: Amaranthus retroflexus
Outline: (§1)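 Seeds are sown in soil pots and raised in the greenhouse until the 2-3 leaf stage. Plants are then sprayed with compound dissolved in acetone with Tween-80, diluted in water and supplemented with 80% vegetable oil methyl ester synergist at 1500 g/ha, and fresh weight inhibition is rated 0-10 three weeks later.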

[2] = system: Chenopodiaceae
Outline: as §1

[3] = system: Rorippa indica
Outline: as §1

[4] = system: Veronica polita
Outline: as §1

Oc1cc(C(F)(F)F)nnc1-c1cccc(I)c1 [Compound 29]
10: weed control effect (activity level), Amaranthus retroflexus ([1]; dose 1000 g/ha) | weed control effect (activity level), Chenopodiaceae ([2]; dose 1000 g/ha) | weed control effect (activity level), Rorippa indica ([3]; dose 1000 g/ha) | weed control effect (activity level), Veronica polita ([4]; dose 1000 g/ha)

O=Cc1ccc(F)cc1-c1nnc(C(F)(F)F)cc1O [Compound 67]
10: weed control effect (activity level), Amaranthus retroflexus ([1]; dose 1000 g/ha) | weed control effect (activity level), Chenopodiaceae ([2]; dose 1000 g/ha) | weed control effect (activity level), Rorippa indica ([3]; dose 1000 g/ha) | weed control effect (activity level), Veronica polita ([4]; dose 1000 g/ha)

Oc1cc(C(F)(F)F)nnc1-c1c(F)ccnc1Cl [Compound 1005]
10: weed control effect (activity level), Amaranthus retroflexus ([1]; Dose 3000 g/ha) | weed control effect (activity level), Chenopodiaceae ([2]; Dose 3000 g/ha) | weed control effect (activity level), Rorippa indica ([3]; Dose 3000 g/ha) | weed control effect (activity level), Veronica polita ([4]; Dose 3000 g/ha)

CCS(=O)Oc1cc(C(F)(F)F)nnc1-c1ccc(F)c(F)c1 (stereo not drawn) [Compound 1-165]
10: weed control effect, Amaranthus retroflexus (activity level) ([1]; Dose 3000 g/ha) | weed control effect, Chenopodiaceae (activity level) ([2]; Dose 3000 g/ha) | weed control effect, Rorippa indica (activity level) ([3]; Dose 3000 g/ha) | weed control effect, Veronica polita (activity level) ([4]; Dose 3000 g/ha)

CCCC/C(C)=N\Oc1cc(C(F)(F)F)nnc1-c1ccc(S(C)(=O)=O)cc1 [Compound 1-175]
10: weed control effect, Amaranthus retroflexus (activity level) ([1]; Dose 3000 g/ha) | weed control effect, Chenopodiaceae (activity level) ([2]; Dose 3000 g/ha) | weed control effect, Rorippa indica (activity level) ([3]; Dose 3000 g/ha) | weed control effect, Veronica polita (activity level) ([4]; Dose 3000 g/ha)

Oc1cc(C(F)(F)F)nnc1-c1ccc(Cl)cc1C(F)(F)F [Compound 763]
10: weed control effect (activity level), Amaranthus retroflexus ([1]; Dose 3000 g/ha) | weed control effect (activity level), Chenopodiaceae ([2]; Dose 3000 g/ha) | weed control effect (activity level), Rorippa indica ([3]; Dose 3000 g/ha) | weed control effect (activity level), Veronica polita ([4]; Dose 3000 g/ha)

N#Cc1cncc(-c2nnc(C(F)(F)F)cc2O)c1 [Compound 984]
10: weed control effect (activity level), Amaranthus retroflexus ([1]; Dose 3000 g/ha) | weed control effect (activity level), Chenopodiaceae ([2]; Dose 3000 g/ha) | weed control effect (activity level), Rorippa indica ([3]; Dose 3000 g/ha) | weed control effect (activity level), Veronica polita ([4]; Dose 3000 g/ha)

CCCCCCOC(=O)Oc1cc(C(F)(F)F)nnc1-c1ccc(Cl)c([N+](=O)[O-])c1 [Compound 1-35]
10: weed control effect, Amaranthus retroflexus (activity level) ([1]; Dose 3000 g/ha) | weed control effect, Chenopodiaceae (activity level) ([2]; Dose 3000 g/ha) | weed control effect, Rorippa indica (activity level) ([3]; Dose 3000 g/ha) | weed control effect, Veronica polita (activity level) ([4]; Dose 3000 g/ha)

Cc1ccc(F)c(-c2nnc(C(F)(F)F)cc2O)c1 [Compound 57]
10: weed control effect (activity level), Amaranthus retroflexus ([1]; dose 1000 g/ha) | weed control effect (activity level), Chenopodiaceae ([2]; dose 1000 g/ha) | weed control effect (activity level), Rorippa indica ([3]; dose 1000 g/ha) | weed control effect (activity level), Veronica polita ([4]; dose 1000 g/ha)

O=S(=O)(NCCCCl)Oc1cc(C(F)(F)F)nnc1-c1cccc(F)c1 [Compound 1-124]
10: weed control effect, Amaranthus retroflexus (activity level) ([1]; Dose 3000 g/ha) | weed control effect, Chenopodiaceae (activity level) ([2]; Dose 3000 g/ha) | weed control effect, Rorippa indica (activity level) ([3]; Dose 3000 g/ha) | weed control effect, Veronica polita (activity level) ([4]; Dose 3000 g/ha)

C/C(CC(C)C)=N/Oc1cc(C(F)(F)F)nnc1-c1cccc(C(F)(F)F)c1 [Compound 1-173]
10: weed control effect, Amaranthus retroflexus (activity level) ([1]; Dose 3000 g/ha) | weed control effect, Chenopodiaceae (activity level) ([2]; Dose 3000 g/ha) | weed control effect, Rorippa indica (activity level) ([3]; Dose 3000 g/ha) | weed control effect, Veronica polita (activity level) ([4]; Dose 3000 g/ha)

Oc1cc(C(F)(F)F)nnc1-c1ccccc1C(F)(F)F [Compound 737]
10: weed control effect (activity level), Amaranthus retroflexus ([1]; Dose 3000 g/ha) | weed control effect (activity level), Chenopodiaceae ([2]; Dose 3000 g/ha) | weed control effect (activity level), Rorippa indica ([3]; Dose 3000 g/ha) | weed control effect (activity level), Veronica polita ([4]; Dose 3000 g/ha)

Cc1cc(-c2nnc(C(F)(F)F)cc2O)cnc1F [Compound 219]
10: weed control effect (activity level), Amaranthus retroflexus ([1]; dose 2000 g/ha) | weed control effect (activity level), Chenopodiaceae ([2]; dose 2000 g/ha) | weed control effect (activity level), Rorippa indica ([3]; dose 2000 g/ha) | weed control effect (activity level), Veronica polita ([4]; dose 2000 g/ha)

Cc1ccc(S(=O)(=O)Oc2cc(C(F)(F)F)nnc2-c2ccc(F)cc2)cc1 [Compound 1-132]
10: weed control effect, Amaranthus retroflexus (activity level) ([1]; Dose 3000 g/ha) | weed control effect, Chenopodiaceae (activity level) ([2]; Dose 3000 g/ha) | weed control effect, Rorippa indica (activity level) ([3]; Dose 3000 g/ha) | weed control effect, Veronica polita (activity level) ([4]; Dose 3000 g/ha)

O=S(=O)(Oc1cc(C(F)(F)F)nnc1-c1ccc(F)c(F)c1)c1ccc(Cl)cc1F [Compound 1-128]
10: weed control effect, Amaranthus retroflexus (activity level) ([1]; Dose 3000 g/ha) | weed control effect, Chenopodiaceae (activity level) ([2]; Dose 3000 g/ha) | weed control effect, Rorippa indica (activity level) ([3]; Dose 3000 g/ha) | weed control effect, Veronica polita (activity level) ([4]; Dose 3000 g/ha)

N#Cc1ncccc1-c1nnc(C(F)(F)F)cc1O [Compound 979]
10: weed control effect (activity level), Amaranthus retroflexus ([1]; Dose 3000 g/ha) | weed control effect (activity level), Chenopodiaceae ([2]; Dose 3000 g/ha) | weed control effect (activity level), Rorippa indica ([3]; Dose 3000 g/ha) | weed control effect (activity level), Veronica polita ([4]; Dose 3000 g/ha)

Oc1cc(C(F)(F)F)nnc1-c1ccnn1Cc1ccccc1 [Compound 833]
10: weed control effect (activity level), Amaranthus retroflexus ([1]; Dose 3000 g/ha) | weed control effect (activity level), Chenopodiaceae ([2]; Dose 3000 g/ha) | weed control effect (activity level), Rorippa indica ([3]; Dose 3000 g/ha) | weed control effect (activity level), Veronica polita ([4]; Dose 3000 g/ha)

CC/C(C)=N\Oc1cc(C(F)(F)F)nnc1-c1ccc(C)cc1 [Compound 1-170]
10: weed control effect, Amaranthus retroflexus (activity level) ([1]; Dose 3000 g/ha) | weed control effect, Chenopodiaceae (activity level) ([2]; Dose 3000 g/ha) | weed control effect, Rorippa indica (activity level) ([3]; Dose 3000 g/ha) | weed control effect, Veronica polita (activity level) ([4]; Dose 3000 g/ha)

Source: patent US12568972B2, “Pyridazinol compounds and derivatives, preparation methods, herbicidal compositions and applications thereof” (Qingdao Kingagroot Chemical Compound Co., Ltd., priority 2018, dated 2026)
